The source of these data is patent publication US9220767B2 (priority 2008, dated 2015).

The subject of assay [1] is three prototypical strains (A/Brisbane/10/2007, A/Brisbane/59/2007, and B/Florida/4/2006). Put plainly: Indirect hemagglutination assay (IHA) of immunised mice sera, statements not split by strain. Type of assay: in vivo. The note with it: for IHA titers induced by Fluarix vaccination: mice immunised twice with Fluarix + adjuvant, vs Fluarix alone (Example 3). How it is done: (§1) Mice were injected by intramuscular route at day 0 and day 21 with: • NaCl, • 1 μg Fluarix® alone, • 1 μg Fluarix®+1 μg PBS-57/S, or • 1 μg Fluarix®+1 μg PBS-57/L.
(§2) Sera were collected at day 42 and reactivity with the three prototypical strains (A/Brisbane/10/2007, A/Brisbane/59/2007, and B/Florida/4/2006) of Fluarix® vaccine was assayed by measuring IHA titers for each of these strains (see FIG. 7).
(§3) Mice were injected by intramuscular route at day 0 and day 21 with: • nothing (naïve mice), • PBS, • 4 μg Agrippal® alone, • 8.9 μg Agrippal® alone, • 4 μg Agrippal®+1 μg PBS-57 in liposome formulation (PBS-57/L) or PBS-14 liposome formulation (PBS-14/L), or • 8.9 μg Agrippal®+1 μg PBS-57 in PEGylated form (PBS-57/S) or PBS-57/L or PBS-14/L.
(§4) Sera were collected at day 42 and reactivity with the three prototypical strains (H3 A/Brisbane/10/2007, H1 A/Brisbane/59/2007, and B/Florida/4/2006) of Agrippal® vaccine was assayed by measuring IHA titers for each of these strains (see FIG. 8).
Mice were injected by intramuscular route at day 0 with: • NaCl, • PBS-57/D alone, • PBS-57/L alone, • PBS-57/S alone, • 4 μg Agrippal® alone, • 8.9 μg Agrippal® alone, • 4 μg Agrippal®+1 μg PBS-57 in liposome formulation (PBS-57/L) or in pegylated form (PBS-57/S) or in DMSO (PBS-57/D), or • 8.9 μg Agrippal®+1 μg PBS-57/L or PBS-57/S or PBS-57/D.
Sera were collected at day 21 and reactivity with the three prototypical strains (H3 A/Brisbane/10/2007, H1 A/Brisbane/59/2007, and B/Florida/4/2006) of Agrippal® vaccine was assayed by measuring IHA titers for each of these strains (see FIG. 9).
Mice were injected by intramuscular route at day 0 with: • PBS, • 1 μg PBS-57 in DMSO (PBS-57/D) alone • 1 μg PBS-57 in PEGylated form (PBS-57/S) alone, • 1 μg PBS-57 in liposome formulation (PBS-57/L) alone, • 4 μg Agrippal® alone, • 8.9 μg Agrippal® alone, • 4 μg Agrippal®+1 μg PBS-57/D, PBS-57/S or PBS-57/L, or • 8.9 μg Agrippal®+1 μg PBS-57/D, PBS-57/S or PBS-57/L.
(§5) Agrippal® vaccine comprises a mixture of A/Brisbane/10/2007-like, A/Brisbane/59/2007-like, and B/Florida/4/2006-like strains.
Sera were collected at day 21 and reactivity with the three prototypical strains (H3 A/Brisbane/10/2007, H1 A/Brisbane/59/2007, and B/Florida/4/2006) of Agrippal® vaccine was assayed by measuring IHA titers for each of these strains (see FIG. 20).

The test system of a further assay is B/Florida/4/2006. Put plainly: Indirect hemagglutination assay (IHA) of immunised mice sera, strain B/Florida/4/2006. Type of assay: in vivo. The note with it: 1 μg Fluarix + 1 μg adjuvant i.m. day 0 and 21; sera day 42; vs Fluarix alone. The procedure:
as §1
(§6) Fluarix® vaccine comprises a mixture of A/Brisbane/10/2007-like, A/Brisbane/59/2007-like, and B/Florida/4/2006-like strains.
as §2, §3, §5, §4

A further assay concerns H1 A/Brisbane/59/2007. Put plainly: Indirect hemagglutination assay (IHA) of immunised mice sera, strain A/Brisbane/59/2007. The format is in vivo. The note with it: 1 μg Fluarix + 1 μg adjuvant i.m. day 0 and 21; sera day 42; vs Fluarix alone. How it is done:
as §1, §6, §2, §3, §5, §4

Assay [2] has as its system iNKT (Vβ11/Vα24+ cells) from cord blood mononuclear cells (CBMC). Put plainly: In vitro iNKT activation, cord blood mononuclear cells. Type of assay: cell-based. The note with it: 7 days culture with IL-2, 10 or 100 ng/ml, compared to 100 ng α-GalCer. How it is done: (§7) Adults PBMC and cord blood mononuclear cells (CBMC) were either non stimulated, or cultured in vitro with IL-2 alone or IL-2 combined with 100 ng α-GalCer or PBS-57/D or PBS-57/L (at 10 ng/ml or 100 ng/ml).
(§8) After 7 days of culture, activation of iNKT was determined by assessing the percentage of Vβ11/Vα24^+ cells amplified from PBMC or CBMC (FIGS. 13 and 14).

The subject of a further assay is IgG1, IgG2a and IgG2b. Put plainly: Detection of IgG1, IgG2a and IgG2b in mouse sera by ELISA after intramuscular Agrippal and adjuvants. To be noted: for level of IgG1 in sera / level of IgG2a in sera / level of IgG2b in sera: 1, 4 or 8.9 μg Agrippal alone or + 1 μg adjuvant, ELISA; for level of IgG1 when the dose of Agrippal combined to the adjuvant was increased / level of IgG2b when the dose of Agrippal combined to the adjuvant was increased / level of IgG2a when the dose of Agrippal combined to the adjuvant was increased: Agrippal 1 to 8.9 μg + 1 μg adjuvant. The format is in vivo, mice. How it is done:
Mice were injected at day 0 and day 21 with: • PBS, • 1 μg Agrippal® alone, • 1 μg Agrippal®+1 μg PBS-57 in pegylated form or liposome formulation (PBS-57/S or PBS-57/L) or PBS-14 liposome formulation (PBS-14/L), • 4 μg Agrippal® alone, • 4 μg Agrippal®+1 μg PBS-57/S or PBS-57/L or PBS-14/L, • 8.9 μg Agrippal® alone, or • 8.9 μg Agrippal®+1 μg PBS-57/S or PBS-57/L or PBS-14/L.
Sera were collected at day 42 and the IgG1, IgG2a and IgG2b content of the sera was analysed by ELISA.
Mice were injected at day 0 with: • PBS, • 1 μg Agrippal® alone, • 1 μg Agrippal®+1 μg PBS-57 in pegylated form or liposome formulation (PBS-57/S or PBS-57/L) • 4 μg Agrippal® alone, • 4 μg Agrippal®+1 μg PBS-57/S or PBS-57/L, • 8.9 μg Agrippal® alone, or • 8.9 μg Agrippal®+1 μg PBS-57/S or PBS-57/L.
Sera were collected at day 21 and the IgG1 and IgG2b content of the sera was analysed by ELISA.

Another assay relates to H3 A/Brisbane/10/2007. Put plainly: Indirect hemagglutination assay (IHA) of immunised mice sera, strain A/Brisbane/10/2007. The format is in vivo. To be noted: 1 μg Fluarix + 1 μg adjuvant i.m. day 0 and 21; sera day 42; vs Fluarix alone. How it is done:
as §1, §6, §2, §3, §5
Sera were collected at day 42 and reactivity with the three prototypical strains (H3 A/Brisbane/10/2007, H1 A/Brisbane/59/2007, and B/Florida/4/2006) of Agrippal® vaccine was assayed by measuring IHA titers for each of these strains (see FIG. 8). […]

In assay [3] the test system is iNKT (Vβ11/Vα24+ cells) from adults PBMC. Put plainly: In vitro iNKT activation, adult PBMC. The format is cell-based. To be noted: 7 days culture with IL-2, 10 or 100 ng/ml, compared to 100 ng α-GalCer. The procedure:
as §7, §8

Where [4] appears, read: mice immunised twice (day 0, 21) with Agrippal + 1 μg adjuvant, sera day 42 (Example 4).
[5] abbreviates: single injection day 0 of Agrippal + 1 μg adjuvant, sera day 21 (Example 5).
Setting [6] is: mice injected day 0 and day 21, sera day 42.
Where [7] appears, read: single injection day 0, sera day 21.
The mark [8] stands for this setting: two injections (day 0, 21), sera day 42.

SMILES strings stand for the structures.

In the case of `CCCCCCCCCCCCCCCCCCCCCCCC(=O)N[C@@H](COC1OC(CNC(C)=O)C(O)C(O)C1O)[C@H](O)[C@H](O)CCCCCCCCCCCCCC` (stereo partly shown) [PBS-96], the “IHA titers induced by Fluarix vaccination” value in assay [1] was “same results”.
Turning to `CCCCCCCC/C=C\CCCCCCCCCCCCCC(=O)N[C@@H](COC1OC(CNC(C)=O)C(O)C(O)C1O)[C@H](O)[C@H](O)CCCCCCCCCCCCCC` (stereo partly shown) [PBS-57], in the assay with B/Florida/4/2006, the “IHA titers induced by Fluarix vaccination against B/Florida/4/2006” value was “significantly enhanced”. Also, in the assay on H1 A/Brisbane/59/2007, the “IHA titers induced by Fluarix vaccination against A/Brisbane/59/2007” value is “enhanced but to a less significant level”. Also, the “IHA titers as compared with the Agrippal vaccine alone” value in assay [1] (setting [4]) is “increased IHA titers”. Moreover, the “IHA titers as compared with the Agrippal vaccine alone” value in assay [1] (single injection day 0 of 4 or 8.9 μg Agrippal + 1 μg adjuvant, sera day 21 (Example 12)) was “increased IHA titers”. Further, the “IHA titers as compared with the Agrippal vaccine alone” value in assay [1] (setting [5]) is listed as “increased IHA titers”. Moreover, the “activation of iNKT (percentage of Vβ11/Vα24+ cells amplified)” value in assay [2] is given as “stronger activation of iNKT compared to α-GalCer”. In the assay on IgG1, IgG2a and IgG2b (setting [6]), the “level of IgG1 in sera” value is “increases”, the “level of IgG2a in sera” value is on record as “increases” and the “level of IgG2b in sera” value is “increases”. In addition, in the assay on IgG1, IgG2a and IgG2b (setting [7]), the “level of IgG1 in sera” value is reported as “increases”, the “level of IgG2b in sera” value is on record as “increases”, the “level of IgG1 when the dose of Agrippal combined to the adjuvant was increased” value (from here on “level of IgG1 … to the adjuvant was increased”) is listed as “not significantly further increased” and the “level of IgG2b when the dose of Agrippal combined to the adjuvant was increased” value (“level of IgG2b … to the adjuvant was increased” below) is listed as “not significantly further increased”. Further, in the assay with IgG1, IgG2a and IgG2b (setting [8]), the “level of IgG1 … to the adjuvant was increased” value is “not significantly further increased”, the “level of IgG2a when the dose of Agrippal combined to the adjuvant was increased” value is listed as “not significantly further increased” and the “level of IgG2b … to the adjuvant was increased” value is on record as “not significantly further increased”. Further, the “IHA titers induced by Fluarix vaccination against A/Brisbane/10/2007” value in the assay on H3 A/Brisbane/10/2007 is “significantly enhanced”. Further, the “activation of iNKT (percentage of Vβ11/Vα24+ cells amplified)” value in assay [3] is recorded as “stronger activation of iNKT compared to α-GalCer”.
For the molecule `CCCCCCCCCCCCCCCCCCCCCCCCCC(=O)N[C@@H](COC1OC(CNC(C)=O)C(O)C(O)C1O)[C@H](O)[C@H](O)CCCCCCCCCCCCCC` (stereo partly shown) [PBS-14], in assay [1] (setting [4]), the “IHA titers as compared with the Agrippal vaccine alone” value is recorded as “increased IHA titers”. In addition, in assay [1], the “IHA titers induced by Fluarix vaccination” value is “same results”. In addition, the “IHA titers as compared with the Agrippal vaccine alone” value in assay [1] (setting [5]) is on record as “increased IHA titers”. In the assay with IgG1, IgG2a and IgG2b (setting [6]), the “level of IgG1 in sera” value is recorded as “increases”, the “level of IgG2a in sera” value is recorded as “increases” and the “level of IgG2b in sera” value was “increases”. In addition, in the assay on IgG1, IgG2a and IgG2b (setting [8]), the “level of IgG1 … to the adjuvant was increased” value is listed as “not significantly further increased”, the “level of IgG2a when the dose of Agrippal combined to the adjuvant was increased” value is on record as “not significantly further increased” and the “level of IgG2b … to the adjuvant was increased” value is recorded as “not significantly further increased”.
